Test results as given in ChEMBL document CHEMBL5634122, “Integrated fragment-based drug design and virtual screening techniques for exploring the antidiabetic potential of thiazolidine-2,4-diones: Design, synthesis and in vivo studies” (Eur J Med Chem, 2023).

Columns and labels:
[1] = test system: HEK293; assay: Cytotoxicity against HEK293 cells assessed as reduction in cell viability at 100 to 8000 nM incubated for 24 hrs by MTT assay; format: toxicity, cell-based; conditions: human, hek293, 24 h, 8 µM, dose 100-8000 nM
[2] = test system: Danio rerio; assay: Antidiabetic activity in STZ-induced Zebra fish diabetic model assessed as blood glucose level at 36 mg/kg measured after 10 days; format: functional; conditions: time 10 day
[3] = test system: Mus musculus; assay: Antidiabetic activity in STZ-induced Swiss albino diabetic mouse model assessed as increase in total cholesterol level in serum at 36 mg/kg, po (reference value: 51.16 +/- 6.89 mg/dl); format: functional
[4] = test system: Mus musculus; assay: Antidiabetic activity in STZ-induced Swiss albino diabetic mouse model assessed as blood glucose levels at 36 mg/kg, po measured immediately by oral glucose tolerance test (reference value: 234.5 mg/dl); format: functional
[5] = test system: Mus musculus; assay: Antidiabetic activity in STZ-induced Swiss albino diabetic mouse model assessed as blood glucose levels at 36 mg/kg, po measured after 120 mins by oral glucose tolerance test; format: functional; conditions: 2 h
[6] = test system: Mus musculus; assay: Antidiabetic activity in STZ-induced Swiss albino diabetic mouse model assessed as blood glucose levels at 36 mg/kg, po measured on day 1,3,5,7 and 15 by glucometer; format: functional; conditions: time 15 day
[7] = test system: Mus musculus; assay: Antidiabetic activity in STZ-induced Swiss albino diabetic mouse model assessed as increase in HDL level in serum at 36 mg/kg, po (reference value: 26 +/- 4.83 mg/dl); format: functional
[8] = Toxicity in Swiss albino mouse assessed as reduction in body weight at 36 mg/kg, po measured for 15 days; format: organism-based; conditions: in vivo, 360 h, time 15 day
[9] = test system: Mus musculus; assay: Antidiabetic activity in STZ-induced Swiss albino diabetic mouse model assessed as blood glucose levels at 36 mg/kg, po measured after 30 mins by oral glucose tolerance test (reference value: 213.5 mg/dl); format: functional; conditions: 0.5 h
[10] = test system: Mus musculus; assay: Antidiabetic activity in STZ-induced Swiss albino diabetic mouse model assessed as blood glucose levels at 36 mg/kg, po measured after 60 mins by oral glucose tolerance test (reference value: 199.16 mg/dl); format: functional; conditions: 1 h
[11] = test system: Mus musculus; assay: Antidiabetic activity in STZ-induced Swiss albino diabetic mouse model assessed as reduction in triglyceride level in serum at 36 mg/kg, po (reference value: 131.83 +/- 12.12 mg/dl); format: functional
[12] = test system: Mus musculus; assay: Antidiabetic activity in STZ-induced Swiss albino diabetic mouse model assessed as reduction in LDL level in serum at 36 mg/kg, po (reference value: 61.83 +/- 4.08 mg/dl); format: functional
[13] = Toxicity in Zebra fish assessed as change in body weight at 10 mg/kg measured after 10 days; format: organism-based, Danio rerio; conditions: zebrafish, in vivo, 240 h, time 10 day
[14] = Toxicity in Swiss albino mouse assessed as reduction in body weight at 10 mg/kg, po measured for 15 days; format: organism-based; conditions: in vivo, 360 h, time 15 day
[15] = target: T1, Peroxisome proliferator-activated receptor gamma (Homo sapiens, UniProt P37231); assay: Agonist activity at PPARgamma in HEK293 cells assessed as transactivation incubated for 5 to 10 mins by microplate reader analysis; format: cell-based
T1 sequence (P37231 whole entry): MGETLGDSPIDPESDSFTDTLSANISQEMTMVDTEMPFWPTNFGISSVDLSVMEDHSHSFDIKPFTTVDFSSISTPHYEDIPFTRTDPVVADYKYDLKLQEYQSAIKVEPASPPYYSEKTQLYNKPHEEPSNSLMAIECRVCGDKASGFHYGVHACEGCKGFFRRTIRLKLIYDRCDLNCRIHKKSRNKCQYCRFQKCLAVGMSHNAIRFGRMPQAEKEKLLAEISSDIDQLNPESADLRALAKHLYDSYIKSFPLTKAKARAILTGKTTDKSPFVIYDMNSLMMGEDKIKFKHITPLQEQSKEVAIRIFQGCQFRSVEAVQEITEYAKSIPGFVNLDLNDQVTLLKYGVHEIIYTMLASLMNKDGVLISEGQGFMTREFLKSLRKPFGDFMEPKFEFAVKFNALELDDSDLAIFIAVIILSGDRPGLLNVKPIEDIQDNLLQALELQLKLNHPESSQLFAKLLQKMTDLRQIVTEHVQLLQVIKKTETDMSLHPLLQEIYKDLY

| Structure (SMILES) | EC50 [15] [µM] | Activity [1] | also measured |
| --- | --- | --- | --- |
| COc1cccc(CN2C(=O)S/C(=C\c3ccc(Nc4ccc(Cl)cc4)cc3)C2=O)c1 |  | Non-Toxic |  |
| CCc1ccc(CCOc2ccc(CC3SC(=O)NC3=O)cc2)nc1 (centres undefined) [PIOGLITAZONE] |  | Non-Toxic | Activity [2]: 112 mg/dL; Activity [3]: 51.16 mg/dL; Activity [4]: 234.8 mg/dL; Activity [5]: 112 mg/dL; Activity [6]: 132.2 mg/dL; Activity [7]: 26 mg/dL; Activity [8]: Non-Toxic; Activity [9]: 214.16 mg/dL; Activity [10]: 150.83 mg/dL; Activity [11]: 52 mg/dL; Activity [12]: 30.16 mg/dL |
| Cc1ccc(CN2C(=O)S/C(=C\c3ccc(Nc4cccc(Cl)c4)s3)C2=O)cc1 |  | Non-Toxic | Activity [13]: Non-Toxic; Activity [14]: Non-Toxic |
| Cc1ccc(CN2C(=O)S/C(=C\c3ccc(Nc4ccccc4Cl)s3)C2=O)cc1 |  | Non-Toxic | Activity [13]: Non-Toxic |
| COc1cccc(CN2C(=O)S/C(=C\c3ccc(Nc4cccc(Cl)c4)cc3)C2=O)c1 |  | Non-Toxic |  |
| Cc1ccc(CN2C(=O)S/C(=C\c3ccc(Nc4ccccc4[N+](=O)[O-])s3)C2=O)cc1 |  | Non-Toxic |  |

Continued, in another order:

| EC50 [15] [µM] | Structure (SMILES) | Activity [1] | also measured |
| --- | --- | --- | --- |
| 2.01 | Cc1ccc(CN2C(=O)S/C(=C\c3ccc(OCc4ccccc4)s3)C2=O)cc1 | Non-Toxic |  |
| 1.54 | Cc1ccc(CN2C(=O)S/C(=C\c3ccc(Oc4ccc([N+](=O)[O-])cc4)s3)C2=O)cc1 | Non-Toxic |  |
| 1.47 | Cc1ccc(CN2C(=O)S/C(=C\c3ccc(Nc4ccc(Cl)cc4)s3)C2=O)cc1 | Non-Toxic |  |
| 2.74 | Cc1ccc(CN2C(=O)S/C(=C\c3ccc(Oc4ccccc4)s3)C2=O)cc1 | Non-Toxic |  |
| 3.57 | Cc1ccc(CN2C(=O)S/C(=C\c3ccc(Oc4ccc5ccccc5c4)s3)C2=O)cc1 | Non-Toxic |  |
| 1.55 | Cc1ccc(CN2C(=O)S/C(=C\c3ccc(Nc4ccc([N+](=O)[O-])cc4)s3)C2=O)cc1 | Non-Toxic |  |
| 1.36 | Cc1ccc(CN2C(=O)S/C(=C\c3ccc(Nc4ccc(Cl)cc4)cc3)C2=O)cc1 | Non-Toxic |  |
